Measured values as given in patent US6818649B2, “Chromenylmethyl pyrimidinediamines as antibacterial agents” (Basilea Pharmaceutica AG, priority 2000, dated 2004).
Converted amounts (≈) assume the structure as drawn.

Columns and labels:
[1] = test system: Streptococcus pneumoniae 1/1, Trimethoprim- and Penicillin-resistant, Serotype 6; clinical isolate; assay: MIC against Streptococcus pneumoniae 1/1; assay type: cell-based; details: read-out: MIC Spn1/1
Description: (§1) The following Table contains inhibitory concentrations determined in the above test for representative members of the class of compound defined by formula I. The following microorganisms were tested: […]
Col. 1: MIC Spn1/1; μg/ml (Streptococcus pneumoniae 1/1, Trimethoprim- and Penicillin-resistant, Serotype 6; clinical isolate, stored at −80° C.)
Lit.: H. Locher et al., Can. J. Infect. Dis.6: Suppl. C, p 469C.

[2] = test system: Staphylococcus aureus 101, MRSA and Trimethoprim-resistant; clinical isolate; assay: MIC against Staphylococcus aureus 101; assay type: cell-based; details: read-out: MIC Sa101
Description: as §1
Col. 2: MIC Sa101; μg/ml (Staphylococcus aureus 101, MRSA^*)— and Trimethoprim-resistant; clinical isolate, stored at −80° C.)
^*) MRSA=Methicillin Resistant Staphylococcus Aureus

[3] = target: purified DHFR of the strain 157/4696 (highly trimethoprim-resistant; clinical isolate) of Staphylococcus aureus (Staphylococcus aureus, UniProt P13955); assay: biochemical
Description: The inhibition of the enzyme was taken as a measurement for the antibacterial activity.

[4] = target: T1, purified DHFR of strain Sp1/1 of Streptococcus pneumoniae (Streptococcus pneumoniae, UniProt Q54801); details: read-out: DHFR Spn1/1 (IC50); purified DHFR of S. pneumoniae strain Spn1/1; IC50 determined graphically
T1 sequence (Q54801 1-168): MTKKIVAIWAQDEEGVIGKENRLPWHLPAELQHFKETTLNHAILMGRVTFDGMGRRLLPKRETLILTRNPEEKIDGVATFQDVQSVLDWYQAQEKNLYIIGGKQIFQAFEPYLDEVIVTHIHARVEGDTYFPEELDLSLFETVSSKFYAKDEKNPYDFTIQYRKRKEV
Description: 3: DHFR Spn1/1; μM—the IC50-values in μM against the purified DHFR of the above strain Sp1/1 of Streptococcus pneumoniae.

In the case of `COc1cc(Cc2cnc(N)nc2N)cc2c1OC(C)(C)C=C2Br` [Example 2, 5-(4-Bromo-8-methoxy-2,2-dimethyl-2H-chromen-6-ylmethyl) -pyrimidine-2,4-diamine], the MIC [1] is reported as 4 µg/mL (≈ 10.2 µM), the MIC [2] is reported as 1 µg/mL (≈ 2.56 µM) and the IC50 [3] is reported as 150 nM. The IC50 [4] was 52 nM.
With `COc1cc(Cc2cnc(N)nc2N)cc(OC)c1OC` [Trimethoprim, reference compound] the MIC [1] was > 32 µg/mL and the MIC [2] was 32 µg/mL (≈ 110 µM).
In the case of `COc1cc(Cc2cnc(N)nc2N)cc2c1OC(C)(C)C=C2Cl` [Example 6, 5-(4-Chloro-8-methoxy-2,2-dimethyl-2H-chromen-6-ylmethyl)-pyrimidine-2,4-diamine], the MIC [1] is reported as 4 µg/mL (≈ 11.5 µM), the MIC [2] is reported as 1 µg/mL (≈ 2.88 µM) and the IC50 [3] is reported as 380 nM. The melting point was 221 to 222 °C and the IC50 [4] was 110 nM.
In the case of `COc1cc(Cc2cnc(N)nc2N)cc2c1OC(C)(C)C=C2c1ccc(F)cc1` [Example 32, 5-[4-(4-Fluoro-phenyl)-8-methoxy-2,2-dimethyl-2H-chromen-6-ylmethyl]-pyrimidine-2,4-diamine], the MIC [1] is reported as > 8 µg/mL, the MIC [2] is reported as > 8 µg/mL and the IC50 [3] is reported as 80 nM. For the same compound, the IC50 [4] was 190 nM.
In the case of `COCC#CC1=CC(C)(C)Oc2c(OC)cc(Cc3cnc(N)nc3N)cc21` [Example 16, 5-[8-Methoxy-4-(3-methoxy-prop-1-ynyl)-2,2-dimethyl-2H-chromen-6-ylmethyl]-pyrimidine-2,4-diamine], the MIC [1] is reported as > 8 µg/mL, the MIC [2] is reported as 4 µg/mL (≈ 10.5 µM) and the IC50 [3] is reported as 220 nM. For the same compound, the melting point was 236 to 237 °C and the IC50 [4] was 680 nM.
With `CCOc1cc(Cc2cnc(N)nc2N)cc(OCC)c1-n1cccc1` [Epiroprim, reference compound] the MIC [1] was 4 µg/mL (≈ 11.3 µM), the MIC [2] was 16 µg/mL (≈ 45.3 µM) and the IC50 [3] was 2000 nM.
For `CCOc1cc(Cc2cnc(N)nc2N)cc2c1OC1(C=C2Br)CCC1` [Example 30, 5-[(4-Bromo-8-ethoxyspiro[2H-1-benzopyran-2,1′-cyclobutan]-6-yl)methyl]-2,4-pyrimidinediamine], the MIC [1] was 4 µg/mL (≈ 9.59 µM), the MIC [2] was 2 µg/mL (≈ 4.79 µM) and the IC50 [3] was 210 nM. The melting point was 213 to 214 °C and the IC50 [4] was 8.9 nM.
With `CCOc1cc(Cc2cnc(N)nc2N)cc2c1OC(C)(C)C=C2C` [Example 8, 5-(8-Ethoxy-2,2,4-trimethyl-2H-chromen-6-ylmethyl)-pyrimidine-2,4-diamine] the MIC [1] was 2 µg/mL (≈ 5.87 µM), the MIC [2] was 4 µg/mL (≈ 11.7 µM) and the IC50 [3] was 1300 nM. For the same compound, the melting point was 216 to 218 °C and the IC50 [4] was 15 nM.
For `COc1cc(Cc2cnc(N)nc2N)cc2c1OC1(C=C2Br)CCOCC1` [Example 21, 5-[(4-Bromo-2′,3′,5′,6′-tetrahydro-8-methoxyspiro[2H-1-benzopyran-2,4′-[4H]pyran]-6-yl)-methyl]-2,4-pyrimidinediamine], the MIC [1] was 4 µg/mL (≈ 9.23 µM), the MIC [2] was 1 µg/mL (≈ 2.31 µM) and the IC50 [3] was 150 nM. It also gave an IC50 [4] of 52 nM.
`COc1cc(Cc2cnc(N)nc2N)cc2c1OC(C)(C)C=C2SC` [Example 4, 5-(8-Methoxy-2,2-dimethyl-4-methylsulfanyl-2H-chromen-6-ylmethyl)-pyrimidine-2,4-diamine] gave an MIC [1] of 4 µg/mL (≈ 11.2 µM), an MIC [2] of 2 µg/mL (≈ 5.58 µM) and an IC50 [3] of 88 nM. It also gave an IC50 [4] of 78 nM.
For `CCCC1=CC(C)(C)Oc2c(OCC)cc(Cc3cnc(N)nc3N)cc21` [Example 10, 5-(8-Ethoxy-2,2-dimethyl-4-propyl-2H-chromen-6-ylmethyl) -pyrimidine-2,4-diamine], the MIC [1] was 2 µg/mL (≈ 5.43 µM), the MIC [2] was 4 µg/mL (≈ 10.9 µM) and the IC50 [3] was 1100 nM. It also gave a melting point of 208 to 209 °C and an IC50 [4] of 15 nM.
Work on `CCOc1cc(Cc2cnc(N)nc2N)cc2c1OC(C)(C)C=C2Br` [Example 7, 5-(4-Bromo-8-ethoxy-2,2-dimethyl-2H-chromen-6-ylmethyl)-pyrimidine-2,4-diamine] yielded an MIC [1] of 0.5 µg/mL (≈ 1.23 µM), an MIC [2] of 0.5 µg/mL (≈ 1.23 µM) and an IC50 [3] of 110 nM. The IC50 [4] was 0.33 nM.
For `CCOc1cc(Cc2cnc(N)nc2N)cc2c1OC(C)(C)C=C2CC` [Example 9, 5-(8-Ethoxy-4-ethyl-2,2-dimethyl-2H-chromen-6-ylmethyl)-pyrimidine-2,4-diamine], the MIC [1] was 1 µg/mL (≈ 2.82 µM), the MIC [2] was 4 µg/mL (≈ 11.3 µM) and the IC50 [3] was 670 nM. The melting point was 222 to 225 °C (dec.) and the IC50 [4] was 12 nM.
